Experimental data published in US9957247B2, “SecA inhibitors and methods of making and using thereof” (Georgia State University Research Foundation, Inc., priority 2012, dated 2018).
Values after ≈ are worked out from the molar mass of the structure shown.

Assays:
S. pyogenes, MGAS5005 = assay: MIC95, S. pyogenes MGAS5005; assay type: cell-based; details: Streptococcus pyogenes, MGAS5005; read-out: MIC95, S. pyogenes MGAS5005
MsSecA = MsSecA (Mycolicibacterium smegmatis, UniProt P71533); assay: SecA-liposomes ion-channel activity in oocytes, MsSecA; assay type: cell-based; details: Table 1
SaSecA2 = biological target: T1, SaSecA2 (Staphylococcus aureus, UniProt Q2FUW6); assay: ATPase activity assay (malachite green), SaSecA2; details: IC50, ATPase activity, SaSecA2, Table 7
T1 sequence (Q2FUW6 1-796): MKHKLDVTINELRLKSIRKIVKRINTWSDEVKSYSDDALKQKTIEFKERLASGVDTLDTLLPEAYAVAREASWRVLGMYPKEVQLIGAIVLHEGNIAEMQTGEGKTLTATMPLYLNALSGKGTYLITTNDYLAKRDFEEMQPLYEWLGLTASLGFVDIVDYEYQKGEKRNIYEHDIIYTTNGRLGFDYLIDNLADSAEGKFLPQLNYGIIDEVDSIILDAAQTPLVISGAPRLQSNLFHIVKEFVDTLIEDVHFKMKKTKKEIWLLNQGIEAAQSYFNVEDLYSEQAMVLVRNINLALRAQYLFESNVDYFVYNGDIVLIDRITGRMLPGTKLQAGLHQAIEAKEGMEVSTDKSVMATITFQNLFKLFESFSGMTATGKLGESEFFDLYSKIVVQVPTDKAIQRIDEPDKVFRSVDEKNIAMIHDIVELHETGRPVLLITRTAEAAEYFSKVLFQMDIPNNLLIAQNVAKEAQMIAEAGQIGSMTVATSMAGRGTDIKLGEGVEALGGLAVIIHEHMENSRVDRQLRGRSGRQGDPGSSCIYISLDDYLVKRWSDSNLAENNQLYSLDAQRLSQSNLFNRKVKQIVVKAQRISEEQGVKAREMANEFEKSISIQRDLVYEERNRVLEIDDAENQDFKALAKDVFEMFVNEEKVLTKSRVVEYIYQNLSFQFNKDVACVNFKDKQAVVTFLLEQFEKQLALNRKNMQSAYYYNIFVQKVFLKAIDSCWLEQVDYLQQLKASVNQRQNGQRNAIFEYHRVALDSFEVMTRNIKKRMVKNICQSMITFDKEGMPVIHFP

BsSecA = BsSecA (Bacillus subtilis, UniProt P28366); assay: biochemical; assay type: biochemical, B. subtilis
Chain of BsSecA (P28366 whole entry): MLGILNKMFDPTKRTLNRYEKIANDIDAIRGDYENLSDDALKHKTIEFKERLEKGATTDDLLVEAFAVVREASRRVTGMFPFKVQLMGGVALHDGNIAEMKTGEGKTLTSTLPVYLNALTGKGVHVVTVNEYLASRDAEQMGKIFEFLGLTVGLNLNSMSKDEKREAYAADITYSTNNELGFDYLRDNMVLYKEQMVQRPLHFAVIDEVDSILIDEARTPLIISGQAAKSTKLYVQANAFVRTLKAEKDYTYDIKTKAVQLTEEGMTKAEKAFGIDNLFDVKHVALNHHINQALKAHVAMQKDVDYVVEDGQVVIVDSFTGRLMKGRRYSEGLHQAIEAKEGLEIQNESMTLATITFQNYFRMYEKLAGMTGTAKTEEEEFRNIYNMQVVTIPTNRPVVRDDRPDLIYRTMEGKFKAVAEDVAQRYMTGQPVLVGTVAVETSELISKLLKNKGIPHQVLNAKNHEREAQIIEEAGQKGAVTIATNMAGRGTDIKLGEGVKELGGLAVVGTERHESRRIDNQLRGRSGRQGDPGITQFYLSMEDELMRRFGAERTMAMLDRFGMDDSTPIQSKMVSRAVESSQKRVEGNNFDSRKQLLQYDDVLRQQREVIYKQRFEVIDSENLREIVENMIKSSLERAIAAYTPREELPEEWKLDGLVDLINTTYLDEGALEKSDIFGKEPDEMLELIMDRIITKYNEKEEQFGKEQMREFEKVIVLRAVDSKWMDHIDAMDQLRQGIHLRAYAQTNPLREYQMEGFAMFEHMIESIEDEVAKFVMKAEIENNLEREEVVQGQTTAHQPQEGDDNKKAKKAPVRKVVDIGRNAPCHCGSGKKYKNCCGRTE

Chain of MsSecA (P71533 whole entry): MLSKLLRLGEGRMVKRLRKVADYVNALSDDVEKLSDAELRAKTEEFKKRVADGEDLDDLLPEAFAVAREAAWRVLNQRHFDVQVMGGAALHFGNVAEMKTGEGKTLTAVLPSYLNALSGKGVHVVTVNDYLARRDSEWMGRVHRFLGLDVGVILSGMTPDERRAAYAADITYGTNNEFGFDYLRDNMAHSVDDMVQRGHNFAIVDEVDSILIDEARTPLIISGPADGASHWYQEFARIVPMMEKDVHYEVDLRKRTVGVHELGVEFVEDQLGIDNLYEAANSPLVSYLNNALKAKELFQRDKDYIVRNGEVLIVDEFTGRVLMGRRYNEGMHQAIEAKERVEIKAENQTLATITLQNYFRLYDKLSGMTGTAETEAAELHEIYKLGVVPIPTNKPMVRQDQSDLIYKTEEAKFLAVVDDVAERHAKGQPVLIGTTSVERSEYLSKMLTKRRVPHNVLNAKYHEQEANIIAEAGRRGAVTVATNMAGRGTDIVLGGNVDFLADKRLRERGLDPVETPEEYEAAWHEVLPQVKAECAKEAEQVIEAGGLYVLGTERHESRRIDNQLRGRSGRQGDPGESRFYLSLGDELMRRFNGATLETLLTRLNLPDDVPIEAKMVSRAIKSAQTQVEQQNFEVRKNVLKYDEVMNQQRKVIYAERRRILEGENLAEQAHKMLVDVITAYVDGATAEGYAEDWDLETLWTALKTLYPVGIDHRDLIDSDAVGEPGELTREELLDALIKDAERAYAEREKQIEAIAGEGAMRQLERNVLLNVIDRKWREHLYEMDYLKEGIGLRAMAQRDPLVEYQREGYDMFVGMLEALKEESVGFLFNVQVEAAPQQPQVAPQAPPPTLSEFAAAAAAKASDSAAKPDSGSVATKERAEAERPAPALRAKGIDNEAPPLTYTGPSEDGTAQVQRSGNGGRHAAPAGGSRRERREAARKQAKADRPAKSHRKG

CCCCCCC1c2ccc(O)cc2Oc2cc(O)ccc21 [SCA-50]
MIC (S. pyogenes, MGAS5005): 6.25 µM (≈ 1.86 µg/mL) | IC50 (MsSecA): 2500 nM | IC50 (SaSecA2): 17.5 µM | IC50 (BsSecA): 33 µM
